The values that follow come from patent publication US9458172B2, “Pyridinyl and pyrimidinyl sulfoxide and sulfone derivatives” (priority 2012, dated 2016).

Each structure is given as a SMILES string. Like-named read-outs stand apart in the source and are kept apart here.

One assay concerns A2780 cells. The assay can be described thus: In-Vitro Cell Proliferation Assay (SRB). To be noted: Homo sapiens, A2780, 72 h.
The target of a further assay is NAMPT (Homo sapiens (Human), UniProt P43490). The assay can be described thus: Biochemical Inhibition Assay (NAMPT enzymatic reaction, NMN quantified by mass spectrometry). As to conditions: 33 nM recombinant His-tagged NAMPT, 1 μM NAM, 30 min at rt. As to the method:
Assay 1: Biochemical Inhibition Assay
NAMPT protein purification. Recombinant His-tagged NAMPT was produced in E. coli cells, purified over a Ni column, and further purified over a size-exclusion column by XTAL Biostructures.
The NAMPT Enzymatic Reaction. The NAMPT enzymatic reactions were carried out in Buffer A (50 mM Hepes pH 7.5, 50 mM NaCl, 5 mM MgCl2, and 1 mM THP) in 96-well V-bottom plates. The compound titrations were performed in a separate dilution plate by serially diluting the compounds in DMSO to make a 100× stock. […] The compound and enzyme mixture was incubated for 15 min at rt, then 10 μL of 10× substrate and co-factors in Buffer A were added to the test well to make a final concentration of 1 μM NAM, […] 5-Phospho-D-ribose 1-diphosphate (PRPP), and 2.5 mM Adenosine 5′-triphosphate (ATP). The reaction was allowed to proceed for 30 min at rt, then was quenched with the addition of 11 μL of a solution of formic acid and L-Cystathionine to make a final concentration of 1% formic acid and 10 μM L-Cystathionine. Background and signal strength was determined by addition (or non-addition) of a serial dilution of NMN to a pre-quenched enzyme and cofactor mix.
Quantification of NMN. A mass spectrometry-based assay was used to measure the NAMPT reaction product, β-nicotinamide mononucleotide (NMN), and the internal control (L-Cystathionine). NMN and L-Cystathionine were detected using the services of Biocius Lifesciences with the RapidFire system. In short, the NMN and L-Cystathionine were bound to a graphitic carbon cartridge in 0.1% formic acid, eluted in 30% acetonitrile buffer, and injected into a Sciex 4000 mass spectrometer. The components of the sample were ionized with electrospray ionization and the positive ions were detected. […] The fragments are quantified and the analyzed by the following method.
Determination of IC50 Values. First, the NMN signal was normalized to the L-Cystathionine signal by dividing the NMN signal by the L-Cystathionine signal for each well. The signal from the background wells were averaged and subtracted from the test plates.

Where [1] appears, read: read-out: Cell Proliferation (IC50).
[2] abbreviates: read-out: Cell Proliferation (IC50), A2780 cells, 72 h, sulforhodamine B.

NAMPT, sequence (P43490 whole entry): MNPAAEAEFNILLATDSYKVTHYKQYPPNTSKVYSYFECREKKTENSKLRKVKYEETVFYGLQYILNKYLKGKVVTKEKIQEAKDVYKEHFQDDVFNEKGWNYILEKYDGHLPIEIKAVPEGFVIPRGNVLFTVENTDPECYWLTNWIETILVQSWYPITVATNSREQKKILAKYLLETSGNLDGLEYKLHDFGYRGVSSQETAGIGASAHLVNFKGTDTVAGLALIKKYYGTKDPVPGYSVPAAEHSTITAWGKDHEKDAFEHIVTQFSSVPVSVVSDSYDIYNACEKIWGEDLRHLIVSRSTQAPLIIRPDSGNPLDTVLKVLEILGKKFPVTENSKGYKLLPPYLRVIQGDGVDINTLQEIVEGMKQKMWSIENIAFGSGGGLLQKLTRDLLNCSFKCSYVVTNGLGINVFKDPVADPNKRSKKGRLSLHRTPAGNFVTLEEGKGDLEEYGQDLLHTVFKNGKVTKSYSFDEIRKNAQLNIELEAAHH

Take `Cn1cc(S(=O)(=O)c2ccc(CNC(=O)c3ccc4nccn4c3)nc2)cn1` [Example 36, Imidazo[1,2-a]pyridine-6-carboxylic acid [5-(1-methyl-1H-pyrazole-4-sulfonyl)-pyridin-2-ylmethyl]-amide]: the IC50 in the assay on A2780 cells (setting [1]) was 472 nM; at NAMPT it was 101 nM.

With `O=C(NCc1ccc(S(=O)(=O)c2ccc(N3CCOCC3)cc2)cn1)c1cc2ccncc2o1` [Example 37, Furo[2,3-c]pyridine-2-carboxylic acid [5-(4-morpholin-4-yl-benzenesulfonyl)-pyridin-2-ylmethyl]-amide], the IC50 in the assay with A2780 cells (setting [1]) amounted to 1 nM; at NAMPT it was 3.5 nM.

As for `O=C(NCc1ccc(S(=O)(=O)c2ccc(N3CCOCC3)cc2)cn1)c1cnc2nccn2c1` [Example 38, Imidazo[1,2-a]pyrimidine-6-carboxylic acid [5-(4-morpholin-4-yl-benzenesulfonyl)-pyridin-2-ylmethyl]-amide], the results for the IC50 in the assay on A2780 cells (setting [2]) and on NAMPT were 10 nM and 2.1 nM, respectively.

As to `O=C(NCc1ccc(S(=O)(=O)c2ccc(N3CCOCC3)cc2)cn1)c1cc2ccncc2s1` [Example 39, Thieno[2,3-c]pyridine-2-carboxylic acid [5-(4-morpholin-4-yl-benzenesulfonyl)-pyridin-2-ylmethyl]-amide], the IC50 with A2780 cells (setting [2]) is 0.8 nM; at NAMPT, 2.8 nM.

`Cn1cc(S(=O)(=O)c2ccc(CNC(=O)c3cc4ccncc4s3)nc2)cn1` [Example 40, Thieno[2,3-c]pyridine-2-carboxylic acid [5-(1-methyl-1H-pyrazole-4-sulfonyl)-pyridin-2-ylmethyl]-amide]: the IC50 in the assay on A2780 cells (setting [1]) stood at 2000 nM; at NAMPT it was 134 nM.

Regarding `O=C(NCc1ccc(S(=O)(=O)c2ccc(N3CCOCC3)nc2)cn1)c1cnc2[nH]ncc2c1` [Example 41, 1H-Pyrazolo[3,4-b]pyridine-5-carboxylic acid (5-(6-morpholin-4-yl-pyridine-3-sulfonyl)-pyridin-2-ylmethyl]-amide], the IC50 in the assay with A2780 cells (setting [1]) is 7.2 nM; on NAMPT, 19 nM.

In the case of `O=C(NCc1ccc(S(=O)(=O)C2CCN(C3CCOCC3)CC2)cn1)c1cc2cnccc2[nH]1` [Example 42, 1H-Pyrrolo[3,2-c]pyridine-2-carboxylic acid {5-[1-(tetrahydro-pyran-4-yl)-piperidine-4-sulfonyl]-pyridin-2-ylmethyl)-amide], the results for the IC50 in the assay with A2780 cells (setting [1]) and on NAMPT were 86.3 nM and 249 nM, respectively.

Consider `CCCn1cc(S(=O)(=O)c2ccc(CNC(=O)c3ccc4nccn4c3)nc2)cn1` [Example 43, Imidazo[1,2-a]pyridine-6-carboxylic acid [5-(1-propyl-1H-pyrazole-4-sulfonyl)-pyridin-2-ylmethyl]-amide], for which the IC50 in the assay on A2780 cells (setting [1]) came to 24.1 nM; on NAMPT it was 27.3 nM.

Take `CC(C)n1cc(S(=O)(=O)c2ccc(CNC(=O)c3ccc4nccn4c3)nc2)cn1` [Example 44]: the values for the IC50 in the assay with A2780 cells (setting [2]) and at NAMPT were 20 nM and 29.9 nM, respectively.

In the case of `CN1CCN(c2ccc(S(=O)(=O)c3ccc(CNC(=O)c4ccc5nccn5c4)nc3)cn2)CC1` [Example 46, Imidazo[1,2-a]pyridine-6-carboxylic acid {5-[6-(4-methyl-piperazin-1-yl)-pyridine-3-sulfonyl]-pyridin-2-ylmethyl}-amide], the IC50 with A2780 cells (setting [1]) came to 1.6 nM; on NAMPT, 6.9 nM.

Consider `CN1CCN(c2ccc(S(=O)(=O)c3ccc(CNC(=O)c4cnc5nccn5c4)nc3)cn2)CC1` [Example 47, Imidazo[1,2-a]pyrimidine-6-carboxylic acid {5-[6-(4-methyl-piperazin-1-yl)-pyridine-3-sulfonyl]-pyridin-2-ylmethyl}-amide], for which the IC50 was 14.1 nM in the assay with A2780 cells (setting [1]) and 2.2 nM at NAMPT.

In the case of `CN1CCN(c2ccc(S(=O)(=O)c3ccc(CNC(=O)c4cnc5nccn5c4)nc3)cc2)CC1` [Example 48, Imidazo[1,2-a]pyrimidine-6-carboxylic acid {5-[4-(4-methyl-piperazin-1-yl)-benzenesulfonyl]-pyridin-2-ylmethyl)-amide], the IC50 in the assay on A2780 cells (setting [1]) turned out to be 8.5 nM; at NAMPT it was 2.3 nM.

In the case of `O=C(NCc1ccc(S(=O)(=O)c2cccc(C(F)(F)F)c2)cn1)N1Cc2ccncc2C1` [Example 49, 1,3-Dihydro-pyrrolo[3,4-c]pyridine-2-carboxylic acid [5-(3-trifluoromethyl-benzenesulfonyl)-pyridin-2-ylmethyl]-amide], the IC50 was determined as 34.5 nM with A2780 cells (setting [1]) and 3.7 nM on NAMPT.

`O=C(NCc1ccc(S(=O)(=O)c2cccc(OC(F)(F)F)c2)cn1)N1Cc2ccncc2C1` [Example 50, 1,3-Dihydro-pyrrolo[3,4-c]pyridine-2-carboxylic acid [5-(3-trifluoromethoxy-benzenesulfonyl)-pyridin-2-ylmethyl]-amide]: the IC50 was 13.5 nM in the assay on A2780 cells (setting [1]) and 3.4 nM on NAMPT.

On to `O=C(NCc1ccc(S(=O)(=O)C2CCOCC2)cn1)c1cc2ccncc2o1` [Example 51, Furo[2,3-c]pyridine-2-carboxylic acid [5-(tetrahydro-pyran-4-sulfonyl)-pyridin-2-ylmethyl]-amide], for which the IC50 in the assay with A2780 cells (setting [1]) turned out to be 301 nM; on NAMPT it was 170 nM.

Turning to `O=C(NCc1ccc(S(=O)(=O)c2ccc(N3CCOCC3)nc2)cn1)c1cc2ccncc2o1` [Example 52, Furo[2,3-c]pyridine-2-carboxylic acid [5-(6-morpholin-4-yl-pyridine-3-sulfonyl)-pyridin-2-ylmethyl]-amide], the results for the IC50 in the assay with A2780 cells (setting [2]) and at NAMPT were 0.5 nM and 2 nM, respectively.

Consider `O=C(NCc1ccc(S(=O)(=O)C2CCOCC2)cn1)c1cc2ccncc2s1` [Example 53, Thieno[2,3-c]pyridine-2-carboxylic acid [5-(tetrahydro-pyran-4-sulfonyl)-pyridin-2-ylmethyl]-amide], for which the IC50 is 548 nM in the assay with A2780 cells (setting [1]) and 92.1 nM at NAMPT.

Regarding `O=C(NCc1ccc(S(=O)(=O)c2ccc(N3CCOCC3)nc2)cn1)c1cc2ccncc2s1` [Example 54, Thieno[2,3-c]pyridine-2-carboxylic acid [5-(6-morpholin-4-yl-pyridine-3-sulfonyl)-pyridin-2-ylmethyl]-amide], the IC50 with A2780 cells (setting [1]) is 0.5 nM; at NAMPT, 1.7 nM.

Turning to `O=C(NCc1ccc(S(=O)(=O)C2CCN(C3COC3)CC2)cn1)c1cc2ccncc2s1` [Example 56, Thieno[2,3-c]pyridine-2-carboxylic acid [5-(1-oxetan-3-yl-piperidine-4-sulfonyl)-pyridin-2-ylmethyl]-amide], the IC50 in the assay with A2780 cells (setting [1]) came to 15.1 nM; on NAMPT it was 25.9 nM.

For `O=C(NCc1ccc(S(=O)(=O)C2CCCCC2)cn1)N1Cc2ccncc2C1` [Example 59, 1,3-Dihydro-pyrrolo[3,4-c]pyridine-2-carboxylic acid (5-cyclohexanesulfonyl-pyridin-2-ylmethyl)-amide], the IC50 with A2780 cells (setting [2]) was 237 nM; at NAMPT, 27.5 nM.

Consider `O=C(NCc1ccc(S(=O)(=O)C2CCOCC2)cn1)c1ccc2nccn2c1` [Example 60, Imidazo[1,2-a]pyridine-6-carboxylic acid [5-(tetrahydro-pyran-4-sulfonyl)-pyridin-2-ylmethyl]-amide], for which the IC50 with A2780 cells (setting [1]) turned out to be 1300 nM; on NAMPT it was 693 nM.

Take `COc1ccc(S(=O)(=O)c2ccc(CNC(=O)c3ccc4nccn4c3)nc2)cc1OC` [Example 65, Imidazo[1,2-a]pyridine-6-carboxylic acid [5-(3,4-dimethoxy-benzenesulfonyl)-pyridin-2-ylmethyl]-amide]: the values for the IC50 in the assay on A2780 cells (setting [1]) and on NAMPT were 7 nM and 30.7 nM, respectively.

Consider `COc1ccc(S(=O)(=O)c2ccc(CNC(=O)c3cc4ccncc4o3)nc2)cc1OC` [Example 66, Furo[2,3-c]pyridine-2-carboxylic acid [5-(3,4-dimethoxy-benzenesulfonyl)-pyridin-2-ylmethyl]-amide], for which the IC50 in the assay with A2780 cells (setting [1]) and at NAMPT was 2.8 nM each time.

On to `CN(C)c1ccc(S(=O)(=O)c2ccc(CNC(=O)c3cc4ccncc4o3)nc2)cn1` [Example 67, Furo[2,3-c]pyridine-2-carboxylic acid [5-(6-dimethylamino-pyridine-3-sulfonyl)-pyridin-2-ylmethyl]-amide], for which the IC50 in the assay on A2780 cells (setting [1]) was 1.9 nM; at NAMPT it was 2.6 nM.

Consider `CN(C)c1ccc(S(=O)(=O)c2ccc(CNC(=O)c3cnc4nccn4c3)nc2)cn1` [Example 69, Imidazo[1,2-a]pyrimidine-6-carboxylic acid (5-(6-dimethylamino-pyridine-3-sulfonyl)-pyridin-2-ylmethyl]-amide], for which the IC50 with A2780 cells (setting [1]) came out at 25.9 nM; at NAMPT, 5.4 nM.
